Test results published in publication PMC8541992, “Safety, pharmacokinetics, and preliminary efficacy of the PARP inhibitor talazoparib in Japanese patients with advanced solid tumors: phase 1 study” (Investigational New Drugs, 2021).
Where two headings read alike, the source gives them in different places.

Key:
[1] = tested on: Japanese patients with locally advanced or metastatic solid tumors; test: Phase 1 dose-escalation study: safety (DLTs, TEAEs)
Description: This is an ongoing open-label, non-randomized, phase 1 study of the PARP inhibitor, talazoparib, in Japanese patients with locally advanced or metastatic solid tumors regardless of mutations in DDR-related genes who are resistant to standard therapies or for whom no standard therapy is available (ClinicalTrials.gov NCT03343054). The study comprises a dose-escalation phase and a dose-expansion phase conducted in 8 Japanese centers (Supplementary Fig. 1). The objective of the initial dose-escalation phase was to investigate the safety, PK (single-dose and steady-state), and preliminary antitumor activity of single-agent talazoparib in sequential cohorts of patients with advanced solid malignancies. A modified 3 + 3 dose-escalation scheme was used to determine the recommended phase 2 dose in Japanese patients; up to 3 patients could be enrolled simultaneously in a cohort although sometimes due to logistical or clinical reasons more than 3 but no more than 9 patients were enrolled at each dose level. Successive cohorts of patients received escalating doses of talazoparib on an outpatient basis starting from 0.75 mg/day. To understand the single-dose safety and single-dose PK assessments of talazoparib, a lead-in period preceding the continuous daily doses was included. Data for the dose-escalation phase are reported here (data cut-off January 2020).
Eligible patients were assigned to one of two talazoparib treatment groups (dose levels). Successive cohorts of patients received talazoparib dosed orally at 0.75 mg QD (3 capsules of 0.25 mg) or 1 mg QD (4 capsules of 0.25 mg), with or without food, on an outpatient basis according to a modified 3 + 3 dose-escalation scheme. On Day −7 (lead-in visit), patients received a single dose of talazoparib, followed by continuous daily dosing from Day 1 of each 28-day cycle. Patients continued to receive talazoparib until either disease progression, patient refusal of study treatment, or unacceptable toxicity. Dose modifications were allowed depending on the type and severity of the toxicity encountered. To continue talazoparib, patients were required to have adequate bone marrow functions (hemoglobin ≥8.0 g/dL, absolute neutrophil count ≥1000/mm^3, platelets ≥50,000/mm^3). If grade 1 or grade 2 treatment-related toxicity occurred (other than renal impairment), dose interruption or dose reduction were not required. Daily dosing was paused for grade ≥3 adverse events (AEs) considered related to talazoparib. Supportive care including blood products for hematologic toxicities was allowed as appropriate per local guidance. Talazoparib dosing could resume at the next lower dose level (e.g., from 1.0 mg/day to 0.75 mg/day; 0.75 mg/day to 0.5 mg/day; 0.5 mg/day to 0.25 mg/day) when toxicity resolved to grade 1 or returned to baseline. […]

[2] = Phase 1 study: single- and multiple-dose plasma pharmacokinetics; format: in vivo, human (Japanese patients); details: for Rac (ratio of AUCtau after multiple doses/AUCtau after single dose) / Rss (ratio of AUCtau after multiple doses/AUCinf after single dose) / Tmax: median (range); for Cmax / AUC / AUC(0-inf) / Cmin: geometric mean (geometric %CV); for half-life: read-out: t1/2 (terminal half-life) (converted); for AUC: AUCtau = AUC24
Method: PK parameters following single- and multiple-dose administration of single-agent talazoparib, included talazoparib area under the plasma concentration-time curve from 0 h to infinity (AUCinf; single dose) and during the dosing interval ([NT], multiple dosing); maximum observed plasma concentration (Cmax); lowest plasma concentration observed during the dosing interval (Cmin); elimination half-life (t1/2); time to Cmax (Tmax); ratio of [NT] after multiple doses/[NT] after single dose (Rac); and ratio of [NT] after multiple doses/AUCinf after single dose (Rss). PK parameters were calculated for each patient using non-compartmental analysis of plasma concentration-time data. Blood samples were collected pre-dose on Day -7, and on Days 1, 15, and 22 of Cycle 1, and Day 1 of Cycles 3 and 4. Post-dose blood samples were also collected at 0.5, 0.75, 1, 2, 3, 4, 6, 8, 10, and 24 h (Day -7 and Day 22 of Cycle 1 only) and at 48, 72, and 96 h (Day -7 only). […] PK parameters and safety data were summarized descriptively.

[3] = tested on: locally advanced or metastatic solid tumors; test: Phase 1 study: antitumor activity, investigator assessment (RECIST v.1.1); format: in vivo, human (Japanese patients)
Method: Antitumor activity was evaluated using radiological tumor assessments of all known or suspected disease sites. Imaging could include chest, abdomen, and pelvis computed tomography (CT) or magnetic resonance imaging (MRI) scans. Brain scans and bone scans were performed at baseline if disease was suspected and during the study as appropriate. CT or MRI scans were conducted at baseline (screening visit), on Day 1 (±7 days) of Cycle 2, and every other cycle thereafter, whenever disease progression was suspected, and at the time of withdrawal from treatment (if not performed within 6 weeks). Tumor response (unconfirmed) was assessed using Response Evaluation Criteria in Solid Tumors (RECIST) v.1.1, and included best overall response (complete response [CR], partial response [PR], stable disease [SD], progressive disease [PD], and non-CR/non-PD), objective response, defined as the sum of CR and PR, and overall disease control rate, defined as the sum of CR, PR, SD, and non-CR/non-PD.

PARP = tested on: PARP; design: method as in PMID 24356813, PMID 31296812; details: PARP inhibition; read-out: Half-maximal inhibitory concentration; cited from earlier work
PARP on DNA = tested on: PARP on DNA; design: method as in PMID 24356813; details: compared with other PARP inhibitors under investigation or approved in Japan; cited from earlier work
[4] = tested on: HER2-negative advanced breast cancer with a germline BRCA1/2 mutation; design: method as in PMID 30110579, PMID 30124753; details: 1 mg QD versus chemotherapy; 95% CI 0.41 to 0.71, P < 0.001; cited from earlier work
[5] = tested on: non-Japanese patients with advanced breast cancer; design: method as in PMID 32162822; details: EMBRACA study; cited from earlier work
[6] = 0.75 mg QD oral, N = 3, listed as talazoparib
[7] = 1 mg QD oral, N = 6, listed as talazoparib
[8] = plasma, multiple dose 0.75 mg QD oral, N = 3

Cn1ncnc1[C@H]1c2n[nH]c(=O)c3cc(F)cc(c23)N[C@@H]1c1ccc(F)cc1 [Talazoparib, talazoparib]
TEAE leading to death ([1]; 0.75 mg QD oral, N = 3): 0 n (%)
TEAE leading to death ([1]; 1 mg QD oral, N = 6): 0 n (%)
Dose reduction due to TEAE ([1]; human, in vivo): 1 (11.1) n (%)
TEAE leading to death ([1]; total, 0.75 and 1 mg QD, N = 9): 0 n (%)
Dose proportionality of drug exposure (Cmax and AUC) ([2]; 1 mg dose level compared with 0.75 mg dose level): slightly higher than dose-proportional
Cmax ([2]; human, plasma, po, 0.75 mg, multiple dose 0.75 mg QD oral, N = 3): 14.4 ng/mL
half-life ([2]; human, plasma, po, 0.75 mg, plasma, single dose 0.75 mg oral, N = 3, mean (standard deviation)): 56.6 h
Tmax ([2]; human, plasma, po, 0.75 mg, plasma, single dose 0.75 mg oral, N = 3, read-out: Tmax): 0.98 h
Cmax ([2]; human, plasma, po, 0.75 mg, single dose 0.75 mg oral, N = 3): 7.24 ng/mL
Cmax ([2]; human, plasma, po, 1 mg, multiple dose 1 mg QD oral, N = 6): 32.8 ng/mL
Tmax ([2]; human, plasma, po, 1 mg, plasma, multiple dose 1 mg QD oral, N = 6, read-out: Tmax): 1.03 h
half-life ([2]; human, plasma, po, 1 mg, plasma, single dose 1 mg oral, N = 6, mean (standard deviation)): 50.7 h
Tmax ([2]; human, plasma, po, 1 mg, plasma, single dose 1 mg oral, N = 6, read-out: Tmax): 0.97 h
Cmax ([2]; human, plasma, po, 1 mg, single dose 1 mg oral, N = 6): 13.8 ng/mL
AUC ([2]; human, plasma, multiple dose 0.75 mg QD oral, N = 3): 127 ng·h/mL
AUC ([2]; human, plasma, multiple dose 1 mg QD oral, N = 6): 245 ng·h/mL
AUC(0-inf) ([2]; human, plasma, single dose 0.75 mg oral, N = 3): 108 ng·h/mL
AUC(0-inf) ([2]; human, plasma, single dose 1 mg oral, N = 6): 200 ng·h/mL
Cmin [2, 8]: 2.18 (8) ng/mL
Tmax [2, 8]: 1.02 (1.0–1.9) h
Cmin ([2]; plasma, multiple dose 1 mg QD oral, N = 6): 3.65 (49) ng/mL
t1/2 (terminal half-life) ([2]; plasma, single dose 1 mg oral, N = 6, mean (standard deviation)): 50.73 (10.1) h
Time to peak of mean plasma concentrations ([2]; single or multiple dosing at 0.75 mg QD or 1 mg QD): around 1 h
Best overall response (unconfirmed): CR ([3]; 0.75 mg QD oral, N = 3): 0 n (%)
Best overall response (unconfirmed): Non-CR/non-PD ([3]; 0.75 mg QD oral, N = 3): 1 (33.3) n (%)
Best overall response (unconfirmed): PD ([3]; 0.75 mg QD oral, N = 3): 2 (66.7) n (%)
Best overall response (unconfirmed): PR ([3]; 0.75 mg QD oral, N = 3): 0 n (%)
Best overall response (unconfirmed): SD ([3]; 0.75 mg QD oral, N = 3): 0 n (%)
Disease control (CR + PR + SD + non-CR/non-PD) ([3]; 0.75 mg QD oral, N = 3): 1 (33.3) n (%)
Objective response (CR + PR) ([3]; 0.75 mg QD oral, N = 3): 0 n (%)
Best overall response (unconfirmed): CR ([3]; 1 mg QD oral, N = 6): 0 n (%)
Best overall response (unconfirmed): Non-CR/non-PD ([3]; 1 mg QD oral, N = 6): 1 (16.7) n (%)
Best overall response (unconfirmed): PD ([3]; 1 mg QD oral, N = 6): 3 (50.0) n (%)
Best overall response (unconfirmed): PR ([3]; 1 mg QD oral, N = 6): 0 n (%)
Best overall response (unconfirmed): SD ([3]; 1 mg QD oral, N = 6): 2 (33.3) n (%)
Disease control (CR + PR + SD + non-CR/non-PD) ([3]; 1 mg QD oral, N = 6): 3 (50.0) n (%)
Objective response (CR + PR) ([3]; 1 mg QD oral, N = 6): 0 n (%)
Overall disease control rate (CR + PR + SD + non-CR/non-PD) ([3]; all 9 patients, 0.75 and 1 mg QD, unconfirmed responses): 44.4%
Best overall response (unconfirmed): CR ([3]; total, 0.75 and 1 mg QD, N = 9): 0 n (%)
Best overall response (unconfirmed): Non-CR/non-PD ([3]; total, 0.75 and 1 mg QD, N = 9): 2 (22.2) n (%)
Best overall response (unconfirmed): PD ([3]; total, 0.75 and 1 mg QD, N = 9): 5 (55.6) n (%)
Best overall response (unconfirmed): PR ([3]; total, 0.75 and 1 mg QD, N = 9): 0 n (%)
Best overall response (unconfirmed): SD ([3]; total, 0.75 and 1 mg QD, N = 9): 2 (22.2) n (%)
Disease control (CR + PR + SD + non-CR/non-PD) ([3]; total, 0.75 and 1 mg QD, N = 9): 4 (44.4) n (%)
Objective response (CR + PR) ([3]; total, 0.75 and 1 mg QD, N = 9): 0 n (%)
PARP-trapping potential relative to other PARP inhibitors (PARP on DNA): approximately 100 times greater
Patients discontinued due to anemia [5]: 0.7%
Patients discontinued due to hematologic toxicities [5]: 1.4%
